# Data as given in publication PMC6781285, “Brain Delivery of a Potent Opioid Receptor Agonist, Biphalin during Ischemic Stroke: Role of Organic Anion Transporting Polypeptide (OATP)” (Pharmaceutics, 2019).
# How the values were obtained:
# [1] = cited from earlier work
# Text: Our lab has communicated several studies that reported the neuroprotective potential of biphalin, an ultra-potent, non-selective, opioid agonist, in models of both permanent and transient ischemic stroke.
# [2] = tested on: iPSC-BMECs; assay: Biphalin uptake studies in iPSC-BMECs; assay type: in vitro ADME, human
# Description: (§1) We measured the level of biphalin in cell lysate (uptake studies) and transport buffer (transport studies) while using our developed, highly sensitive LC-MS/MS method. Briefly, biphalin was extracted from the samples by the addition of acetonitrile (1:2) containing 10 ng/mL internal standard, [D-Ala^2] Leucine Enkephalin (Sigma-Aldrich, St. Louis, MO, USA). After 1-min. vortexing, the mixture is centrifuged at 10,000 rpm for 10 min. After that the supernatant is mixed with an equivalent volume of LCMS water and then loaded into the insert vials ready for the analysis. The UHPLC-MS/MS system equipped with AB SCIEX QTRAP® 5500 mass spectrometer (Foster City, CA, USA) attached to a Nexera ultra high performance liquid chromatography (UHPLC) system from Shimadzu Corporation (Columbia, MD, USA) was used. Data acquisition and quantification were performed by Analyst software 1.7.0.
# (§2) Chromatographic separation was then performed with a Kinetex C18 column (50 × 2.1mm, 1.8 μm, Phenomenex, Torrance, CA, USA) while using mobile phases, 0.1% formic acid in water and 0.1% formic acid in acetonitrile. The gradients of acetonitrile (10% at time zero, 31% at 2.5 min., 90% at 2.6 min. up to 3.6, followed by 10% at 3.7 min. up to 4.5 min.) were used to elute biphalin at a flow rate of 0.4 mL/min. Column temperature was maintained at 45 °C. The retention time of biphalin was ∼1.8 min. while the retention time for the internal standard (IS) was ∼2.2 min. Multiple reaction monitoring was conducted in […], and the transitions for biphalin and internal standard were 455.2 → 136.2 m/z and 570.3 → 120.3 m/z, respectively. The collision energy for biphalin and IS was 40 and 45 volts, respectively.
# Differentiated BMECs (iPSC-BMECs) are seeded in 12-well plates, incubated with either biphalin (10 µg/mL) (control) or pre-incubated with OATP1 substrate, estrone-3-sulfate (E3S) (10 µM) for 10 min., followed by co-incubation of E3S and 10 µg/mL biphalin in the 37 °C incubator for 20 min. The incubation time, 20 min. was selected to get detectable amount of biphalin in the cell extract. Next, the cells are washed two times with ice-cold phosphate buffered saline (PBS, pH 7.4). The cells were solubilized with 100 µL radioimmunoprecipitation assay (RIPA) Buffer (Thermo Fisher, Waltham, MA, USA) with protease and phosphatase inhibitor cocktail (Thermo Fisher, Waltham, MA, USA), and the amount of biphalin uptake was determined by using the above LCMS method. Protein content was calculated with a detergent-compatible bicinchoninic acid (BCA) assay (Pierce Chemical, Rockford, IL, USA). Biphalin uptake was normalized while using protein content and then presented as biphalin (ng) per µg of protein.
# In vitro stroke conditions were simulated by exposing the cells to oxygen-glucose deprivation (OGD) conditions. Briefly, iPSC-BMECs were rinsed twice with Dulbecco’s Modified Eagle medium Solution (DMEM). The cells were incubated with DMEM media (without glucose) plus 1% of PDS [33]. Hypoxia (1% oxygen) was induced by placing the cells in a hypoxic polymer glove box (Coy Laboratories, Grayslake, MI, USA), which was infused with 95% N2 and 5% CO2 at 37 °C. Cells were exposed to OGD condition for 1 h, 2 h, and 6 h, followed by reperfusion with OGD media with glucose and sodium pyruvate. For reperfusion studies, the cells were incubated in the CO2 incubator for pre-determined timepoints, 30 min., 1 h, 2 h, and 6 h.
# [3] = tested on: iPSC-BMECs monolayer; assay: Biphalin transcellular transport across iPSC-BMECs monolayer (transwell in vitro BBB model); assay type: in vitro ADME, human
# Description: as §1, §2
# (§3) Transport studies were performed to determine the role of OATP1 on the blood-to-brain transport of biphalin. Confluent iPSC-BMECs, (one million cells/insert) were seeded to the apical side of a 12-well transwell insert (area 1.12 cm^2, polyester), which is pre-coated with 400 µg/mL collagen and 100 µg/mL fibronectin [35]. 10 µg/mL biphalin and an equivalent concentration of FITC-dextran (4kD) were added to the apical compartment. For studies using an inhibitor and OATP1 substrate, E3S was pre-incubated for 30 min., followed by incubation with biphalin and E3S [11]. E3S was added to both the luminal and abluminal sides to inhibit the transporters on both sides. The results were expressed as a net permeability coefficient (PC) after subtracting the PC of FITC-dextran from the PC of biphalin.
# (§4) In vitro stroke conditions were simulated by exposing the cells to oxygen-glucose deprivation (OGD) conditions. […] For reperfusion studies, the cells were incubated in the CO2 incubator for pre-determined timepoints, 30 min., 1 h, 2 h, and 6 h.
# [4] = tested on: OATP1; assay: as above; assay type: in vitro ADME, human; settings: human; normoxic; E3S pre-incubated 30 min, both luminal and abluminal sides, then biphalin 10 µg/mL plus E3S; A-B; corrected for FITC-dextran 4 kD; LC-MS/MS; mean ± SD, n = 4; read-out: net permeability coefficient (PC) of biphalin, apical to basolateral, with E3S (converted)
# Description: as §1, §2, §3, §4
smiles,measurement,setting,value
C[C@@H](NC(=O)[C@@H](N)Cc1ccc(O)cc1)C(=O)NCC(=O)N[C@@H](Cc1ccccc1)C(=O)NNC(=O)[C@H](Cc1ccccc1)NC(=O)CNC(=O)[C@@H](C)NC(=O)[C@@H](N)Cc1ccc(O)cc1 [biphalin],injected dose accumulated in the brain,[1],0.05%
same,biphalin uptake,"[2]; 2 h OGD + 6 h reperfusion, LC-MS/MS, mean ± SD, n = 4",2.5 ± 0.2 ng/µg
same,biphalin uptake,"[2]; 6 h OGD + 30 min reperfusion, LC-MS/MS, mean ± SD, n = 4",2 ± 0.25 ng/µg
same,biphalin uptake,[2]; 6 h OGD + 6 h reperfusion,decreased to the basal normoxic level
same,biphalin uptake,"[2]; after 1 h OGD, biphalin 10 µg/mL, 20 min, LC-MS/MS, mean ± SD, n = 4",1.31 ± 0.2 ng/µg
same,increase of biphalin uptake compared to normoxic conditions,"[2]; after 2 h OGD exposure (1% oxygen, no glucose), n = 4",2.8 fold
same,biphalin uptake,"[2]; after 2 h OGD, biphalin 10 µg/mL, 20 min, LC-MS/MS, mean ± SD, n = 4",1.89 ± 0.015 ng/µg
same,increase of biphalin uptake compared to normoxic conditions,"[2]; after 6 h OGD exposure (1% oxygen, no glucose), n = 4",2.4 fold
same,biphalin uptake,"[2]; after 6 h OGD, biphalin 10 µg/mL, 20 min, LC-MS/MS, mean ± SD, n = 4",1.64 ± 0.15 ng/µg
same,average reduction of biphalin uptake by E3S pre-incubation,"[2]; average over selected OGD and OGD-reperfusion timepoints (2 h OGD, 6 h OGD, 2 h OGD + 6 h R, 6 h OGD + 30 min R), n = 3",26.59 ± 8.01%
same,reduction of biphalin uptake by E3S,"[2]; normal (normoxic) conditions, E3S 10 µM",approximately 23%
same,biphalin uptake,"[2]; normoxic, without E3S, biphalin 10 µg/mL, 20 min, 37 °C, cell lysate (RIPA), LC-MS/MS, normalized to protein (BCA), mean ± SD, n = 4",0.49 ± 0.05 ng of biphalin per 1 ug of protein
same,biphalin uptake with E3S,"[2]; normoxic, E3S (OATP1 substrate) 10 µM pre-incubated 10 min, then co-incubated with biphalin 10 µg/mL 20 min, 37 °C, LC-MS/MS, mean ± SD, n = 4",0.37 ± 0.05 ng/ug protein
same,average reduction of biphalin transport in the presence of E3S,"[3]; A-B, average over OGD and OGD-reperfusion timepoints, E3S pre-treated 30 min, n = 3",37.96 ± 12.51%
same,transport of biphalin from basolateral to apical side (B to A),"[3]; B-A, to determine the role of P-gp or other efflux mechanisms, data not shown",negligible
same,reduction of biphalin transport by E3S,"[3]; normal (normoxic) conditions, A-B, E3S pre-incubated 30 min",~40%
same,Papp A→B at 10 µg/mL,[4],5.67 ×10⁻⁶ cm/s
